Tests used:
[1] = target: T1, human group X sPLA2 (Homo sapiens, UniProt O15496); experiment: Fatty acid release from isolated human lipoproteins induced by group X sPLA2; type: biochemical; conditions: agent 10 μmol/L, added with sPLA2; arachidonic acid from LDL (FIG. 2)
T1 sequence (O15496 43-165): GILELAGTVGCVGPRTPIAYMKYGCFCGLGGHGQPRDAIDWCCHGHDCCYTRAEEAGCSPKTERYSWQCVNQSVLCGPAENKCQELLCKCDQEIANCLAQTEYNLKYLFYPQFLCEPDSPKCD
Protocol: LDL and HDL were isolated from human plasma by ultracentrifugation (Havel, et al., J. Clin. Invest. 34, 1345-1353 (1955)). Human group IB, IIA and X sPLA2s (0.5 nmol/L to 500 nmol/L) were reacted with LDL and HDL (0.35-1 mg/ml) at 37° C. in a solution containing 12.5 mmol/L Tris-HCL buffer (pH 8.0), 125 mg/L bovine serum albumin, and 1 mmol/L calcium chloride. The fatty acids released from the lipoproteins were extracted according to the method of Dole (Dole, et al., J. Biol. Chem. 235, 2595-2599 (1960)), and were labeled with 9-anthryldiazomethane by the known method (Hanasaki, et al., J. Biol. Chem. 274, 34203-34211 (1999)). Then, the released fatty acids were determined by detecting fluorescence of the labeled products (fatty acids) eluted from high performance liquid chromatography (HPLC) on reverse-phase column (LichroCART 125-4 Superspher 100 RP-18 columnmol/Merck). In order to examine does-dependent release of fatty acids induced by each sPLA2, the lipoprotein was reacted with 0.5, 5, 50, and 500 nmol/L group X sPLA2, and 50 and 500 nmol/L group IB and IIA sPLA2 for 60 minutes. Further, in order to examine time-dependent fatty acid release induced by sPLA2, each 50 nmol/L sPLA2 was used, and the change in the release with time course was traced during the period time of 4 hours after the sPLA2 addition. In the experiment for determining the inhibitory activity of a sPLA2 inhibitor (indoxam; Yokota, et al., Biochim. Biophys. Acta 1438, 213-222 (1999)), a cyclooxygenase (COX) inhibitor (indomethacin) or a 5-lipoxygenase (5-LOX) inhibitor (AA-861; 2,3,5-trimethyl-6-(12-hydroxy-5,10-dodecadiynyl)-1,4-benzoquinone (Yoshimoto, et al., Biochem. Biophys. Acta. 713, 470-473 (1982)), those agents were added to the reaction giving a final concentration of 10 μmol/L, virtually simultaneously with the addition of sPLA2.

[2] = target: T1, human group X sPLA2; experiment: Negative charge of isolated human lipoproteins (agarose gel electrophoresis) after group X sPLA2; type: biochemical; conditions: agent 10 μmol/L; LDL and HDL, 50 nmol/L sPLA2
Protocol: LDL and HDL were isolated from human plasma by ultracentrifugation (Havel, et al., J. Clin. Invest. 34, 1345-1353 (1955)). Human group IB, IIA and X sPLA2s (50 nmol/L) and CuSO4 (20 μmol/L) were reacted with LDL and HDL (1 mg/ml) at 37° C. for 3, 6, and 24 hours in a solution containing 12.5 mmol/L Tris-HCL buffer (pH 8.0), 125 mg/L bovine serum albumin, and 1 mmol/L calcium chloride. Then, a 1 μg sample of LDL and a 2 μg sample of HDL were electrophoresed on agarose gel (Helena Laboratories, TITAN GEL Lipoprotein; 90V, 25 minutes). After the electrophoresis, the gel was dried at 50 to 60° C. for about 1 hour, stained with 6 ml of a stain solution (Helena Laboratories, Fat Red 7B agarose solution) for about 3 minutes, and then decolorized with 25 ml of a decolorizing solution (70% methanol). In the experiment for determining the activity of a sPLA2 inhibitor (indoxam), a COX inhibitor (indomethacin) or a 5-LOX inhibitor (AA-861), those agents were added to the reaction giving a final concentration of 10 μmol/L, virtually simultaneously with the addition of sPLA2.

[3] = test system: mouse peritoneal macrophages; experiment: Uptake of LDL into mouse peritoneal macrophages induced by group X sPLA2 (Oil Red O stain); type: cell-based; conditions: agent 10 μmol/L; 0.2 mg/ml LDL, 50 nmol/L group X sPLA2, 48 hours
Protocol: C57BL/6J mice (male, 8 weeks) were injected peritoneally with 2 ml of a 4% thioglycollate solution, and, 4 days later, the cells from the peritoneal fluids were harvested. The cells were plated on a chamber slide, and incubated for 2 hours in the presence of the serum-free medium (BIO […]: X-VIVO 15). Then, non-adherent cells were removed by the washing procedure to prepare peritoneal macrophages. The cells were added with 0.2 mg/ml LDL (Sigma) and 50 nmol/L group X PLA2, and incubated in the serum-free medium for 48 hours. Uptake of LDL into macrophages were confirmed by immobilizing the cells with 4% formaldehyde for 20 minutes, and then staining the lipids with an Oil Red O stain solution.

[4] = target: T2, human group V sPLA2 (Homo sapiens, UniProt P39877); experiment: Fatty acid (linoleic acid) release from isolated human lipoproteins induced by group V sPLA2; type: biochemical; conditions: agent 10 μmol/L; from LDL (FIG. 8)
T2 construct: made in house; host or cells: CHO cells, stably transfected (pSVL vector); culture supernatant used
T2 sequence (P39877 21-138): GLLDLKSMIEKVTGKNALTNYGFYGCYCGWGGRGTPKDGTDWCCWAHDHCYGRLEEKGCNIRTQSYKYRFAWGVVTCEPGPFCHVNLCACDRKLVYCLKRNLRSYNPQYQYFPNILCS
Protocol: LDL and HDL were isolated from human plasma by ultracentrifugation (Havel, et al., J. Clin. Invest. 34, 1345-1353 (1955)). […] Biol. Chem. 235, 2595-2599 (1960)). The fatty acids were labeled with 9-anthryldiazomethane by the known method ([…], et al., J. Biol. Chem. 274, 34203-34211 (1999)), and then were determined by detecting fluorescence of the labeled products (fatty acids) eluted from high performance liquid chromatography (HPLC) on reverse-phase column (LichroCART 125-4 Superspher 100 RP-18 column, Merck).

[5] = target: T2, human group V sPLA2; experiment: Degeneration (negative charge, agarose gel electrophoresis) of isolated human lipoproteins by group V sPLA2; type: biochemical; conditions: agent 10 μmol/L; LDL and HDL, 50 nmol/L sPLA2
Protocol: LDL and HDL were isolated from human plasma by ultracentrifugation (Havel, et al., J. Clin. Invest. 34, 1345-1353 (1955)). Human group IIA and V sPLA2s (50 nmol/L) were reacted with LDL and HDL (1 mg/ml) at 37° C. for 3, 6, and 24 hours in a solution containing 12.5 mmol/L Tris-HCL buffer (pH 8.0), 125 mg/L bovine serum albumin, and 1 mmol/L calcium chloride, and then 1 μg of the LDL and 2 μg of the HDL were spotted on an agarose gel (Helena Laboratories, TITAN GEL Lipoprotein), followed by being electrophoresed at 90V for 25 minutes. After the electrophoresis, the gels were dried at 50 to 60° C. for about one hour, stained with 6 ml of a stain solution (Helena Laboratories, Fat Red 7B agarose solution) for about three minutes, and then decolorized with 25 ml of a decolorizing solution (70% methanol).

CCc1c(C(=O)C(N)=O)c2c(OCC(=O)O)cccn2c1Cc1ccccc1-c1ccccc1 [indoxam]
inhibited: Effect on fatty acid release induced by group X sPLA2 [1] | Effect on lipoprotein degeneration (increase in negative charge) induced by group X sPLA2 [2] | Effect on group X sPLA2-induced uptake of LDL into the cells [3] | Effect on linoleic acid release induced by group V sPLA2 [4] | Effect on lipoprotein degeneration induced by group V sPLA2 [5]
